From patent US20100311107A1, “Ultra-High Throughput Screening of Natural Products” (priority 2004, published 2010)
Like-named read-outs stand apart in the source and are kept apart here.

How the values were obtained:
Format in all cases: cell-based, Escherichia coli
E. coli MG1655 = system: E. coli MG1655; parameters: unit not given here
Procedure: (§1) The screening strain, DR1234, was established after all desired drug-resistant genes listed in Table 5 had been delivered into the parent E. coli strain, MG1655, by methods described above. Its level of drug resistance was analyzed by the standard minimum inhibitory concentration (MIC) assay in MHB liquid medium (Chantot, et al., 1986, “Antibacterial activity of roxithromycin: a laboratory evaluation,” J. Antibiot, 39(5):660-8) and the result was summarized in Table 7.
(§2) The level of drug resistance of CM166 was estimated by MIC assay carried out in MHB liquid medium and the results were summarized in Table 9. CM166 is resistant to antibacterial agents whose resistant genes have been incorporated into the strain, but not to other antibacterial drugs whose resistant genes are not incorporated.
(§3) The level of drug-resistance of screening strain DR1212 was analyzed by standard MIC assay in MHB liquid medium and the result was summarized in Table 11. Similar to screening strains, DR1234 and CM166, DR1212 is also resistant to drugs whose resistant genes have been introduced.
(§4) The level of drug resistance of these screening strains (both intermediates and finals) was evaluated by standard MIC assay in MHB liquid medium and the result of Strain CM242 is summarized in Table 12.
(§5) The level of drug resistance of screening strains CM400 and CM435 was evaluated by standard MIC assay in MHB liquid medium and the results are summarized in Table 13. According to the MIC results, CM435 is hypersensitive to Bleomycin, Daunorucibin, Coumermycin A1 and Erythromycin. Screening strain CM435 and others, which are hypersensitive to certain types of antimicrobial agents, are advantageous in detecting bioactive compounds with low concentration in the screening system.

[1] = system: E. coli screening strain DR1234; parameters: unit not given here; conditions: Table 7, MHB medium
Procedure: as §1

[2] = system: E. coli screening strain CM166; parameters: unit not given here; conditions: Table 9, MHB medium
Source text: as §2

[3] = system: E. coli screening strain DR1212; parameters: unit not given here; conditions: Table 11, MHB medium
Procedure: as §3

[4] = system: E. coli screening strain CM242; parameters: unit not given here; conditions: second Table 12, MHB medium
Procedure: as §4

[5] = system: E. coli screening strain CM400; parameters: unit not given here; conditions: Table 13, MHB medium
Procedure: as §5

[6] = system: E. coli screening strain CM435; parameters: Minimal inhibitory concentrations (MIC90) CM435: unit not given here; conditions: for Minimal inhibitory concentrations (MIC90) CM435: Table 13, MHB medium
[7] = system: BW25113 strain containing drug-resistant genes inserted into the bioA locus; assay: drug resistance characterization of strain with Tn7 cassette in bioA locus; conditions: for resistance conferred: native sat promoter, streptothricin at 5 ug/ml, spectinomycin at 100 ug/ml; for resistance of strains having the promoter substitute: sat promoter replaced by Ptrc
Source text: Therefore, a functional copy was introduced by homologous recombination as described hereafter. The drug-resistant gene of interest was synthesized in vitro using PCR with oligonucleotide primers that contained homologous sequences to the target genes and an additional ˜50 by homologous to a particular chromosomal site of the recipient strain. For instance, to insert the Tn7-associated resistance gene cassette dhfrI-sat-aadA into the bioA gene locus of the recipient strain, the primers listed in Table 6 were used. The capitalized portions of these primers hybridized to Tn7 template DNA upstream and downstream of the resistance gene cassette and allowed PCR amplification of the target fragment (Roche (Mannheim, Germany) Long Template PCR System). The ˜50 by additional sequence of these oligonucleotides (low case) afforded regions of homology with the chromosomal target site of the recipient, in this instance, the bioA gene locus (Table 6). The PCR product of the above reaction was introduced into a specialized strain, BW25113 (obtained from the E. coli Genetic Stock Center, strain # 7739) by standard electroporation following the manufacturer's instruction of BioRad (Hercules, Calif.) Gene Pulser, model #1652076, for standard electroporation of E. coli. Double-crossover homologous recombination, mediated by the bacteriophage lambda Red recombinase present in the strains pKD46 [#7630], pKD78 [#7989] or pKD119 [#7990], occurred between the “bioA” locus of the recipient strain and the PCR products via their homologous regions designed in the PCR primers as described above, resulting in the insertion of the drug resistance cassette into the bioA locus of the chromosome (FIG. 3, item 315). […] Once verified by drug resistance characterization and diagnostic PCR assay (see above), the drug resistance-encoding locus from the BW25113/pKD46 strain was introduced into the same locus of the recipient screening strain by standard P1 transduction as described above, also see FIG. 3, item 310.
To increase the gene expression level, the T7 promoter was used to replace the weak promoter of sat gene.

| Compound | Minimal inhibitory concentrations (MIC90) MG1655 (E. coli MG1655; Table 7, MHB medium) | Minimal inhibitory concentrations (MIC90) MG1655 (E. coli MG1655; Table 9, MHB medium) | Minimal inhibitory concentrations (MIC90) MG1655 (E. coli MG1655; Table 11, MHB medium) | Minimal inhibitory concentrations (MIC90) MG1655 (E. coli MG1655; Table 13, MHB medium) | Minimal inhibitory concentrations (MIC90) MG1655 (E. coli MG1655; second Table 12, MHB medium) | Minimal inhibitory concentrations (MIC90) DR1234 [1] | Minimal inhibitory concentrations (MIC90) CM166 [2] | Minimal inhibitory concentrations (MIC90) DR1212 [3] | Minimal inhibitory concentrations (MIC90) CM242 [4] | Minimal inhibitory concentrations (MIC90) CM400 [5] | Minimal inhibitory concentrations (MIC90) CM435 [6] | resistance conferred [7] | resistance of strains having the promoter substitute [7] | sensitivity of CM435 according to the MIC results ([6]; MHB liquid medium) |
| --- | --- | --- | --- | --- | --- | --- | --- | --- | --- | --- | --- | --- | --- | --- |
| CN[C@@H]1[C@H](O)[C@H](NC)[C@H]2O[C@@]3(O)C(=O)C[C@@H](C)O[C@H]3O[C@@H]2[C@H]1O [Spectinomycin] | 6.3-12.5 | 6.3-12.5 | 6.3-12.5 | 16 | 6.3-12.5 | >400 | >400 | >400 | >400 | >64 | >64 | not | resistant | – |
| Bleomycin | ≦0.2-0.4 | ≦0.2-0.4 | ≦0.2-0.4 | 2 | ≦0.2-0.4 | 0.8 | 400 | ≦0.4 | 200 | >64 | 8 | – | – | hypersensitive |
| Gentamicin | 0.8 | 0.8 | 0.8 | 1 | 0.8 | 400 | >400 | 200 | 100 | >64 | >64 | – | – | – |
| Neomycin | 0.8 | 0.8 | 0.8 | 2 | 0.8 | 100 | 25 | 25 | 50 | 16 | 8 | – | – | – |
| Streptothricin | 0.4-1.6 | 0.4-1.6 | 0.4-1.6 | 2 | 0.4-1.6 | 400 | 400 | 200 | >400 | >64 | 64 | not | resistant | – |
